Reference: patent US20260055061A1, “HALOPHTHALIMIDE COMPOUNDS AND METHODS OF USE AGAINST TBI, INFLAMMATORY DISORDER, AUTOIMMUNE DISORDER, NEURODEGENERATIVE DISEASE OR VIRAL INFECTION” (The United States of America, as represented by the …, priority 2022, published 2026)
Entries after “also recorded” stand apart in the source; their conditions may differ.

Legend:
CCI-induced TBI mice = assay: CCI mouse model of TBI: DigiGait gait analysis; format: in vivo; conditions: high dose 32.5 mg/kg; 1 week after CCI
Protocol: In vivo model of TBI: Mice were anesthetized with 2.5% tribromoethanol (Avertin: 250 mg/kg; Sigma, St. Louis, MO, USA) and placed in a stereotaxic frame (Kopf Instruments, Tujunga, CA, USA). A 4 mm craniotomy was performed using sterile procedures; the craniotomy point was selected midway between the lambda and bregma sutures and laterally midway between the central suture and the temporalis muscle. The skull fragment was then carefully removed without disruption of the underlying dura. Prior to injury induction, the tip of the impactor was angled and kept perpendicular to the exposed cortical surface. The mouse CCI instrument consisted of an electromagnetic impactor, Impact One (Leica Biosystems Inc., Buffalo Grove, IL, USA) that allows independent alteration of injury severity by controlling contact velocity and the level of cortical deformation. In these experiments, the contact velocity was set at 5.0 m/sec, the dwell time was set at 0.2 s and the deformation depth was set at 2 mm to produce a moderate TBI. The injury site was allowed to dry prior to suturing the wound. During surgery and recovery, the body temperature of the animals was maintained at 36-37° C. by using a heating pad. […] Mice were randomized following CCI to treatment with either of two doses of TFBP (16.25 mg/kg and 32.5 mg/kg, i.p.) or saline, and were dosed at 1 and 24 hr after the injury.
Behavioral assessment for motor functions and coordination: Behavioral tests were performed 1 week and 2 weeks after injury, to assess changes in motor functions and coordination. All tests were performed during the animals' light phase; cages were transported to testing rooms at least 30 min prior to testing.
Gait analysis: For the gait analysis, mice were tested on a fixed-speed treadmill apparatus (DigiGait; Mouse Specifics). Mice were habituated to the apparatus for 1 min, and then given a 1-min run at 5 cm/s. Following a 1-min rest, the treadmill speed was increased to 15 cm/s. Video was collected at high speed from a ventrally placed camera, and 3-5 s of representative gait video was selected by an experienced but blinded user for automated analysis.
In Vivo Model of TBI: TBI studies were conducted in 8-week-old male C57/BL6 mice (25-30 g; n=20), Jackson Laboratory, Bar Harbor, Maine USA. Mice were randomly assigned to four groups prior surgery, CMC+Sham, CMC+TBI, compound 30 (Low dose (LD), 14.78 mg/kg, prepared in 1% CMC in PBS)+TBI, compound 30 (High dose (HD), 29.57 mg/kg)+TBI, and evaluated the effects of compound 30 on TBI. Mice were assessed for gait function and motor coordination, balance function. Animals were subsequently evaluated for cellular changes using histological and immunohistochemistry staining. […]

chicken embryos = assay: Chick embryo teratogenicity; format: in vivo
Protocol: Chick embryology and analysis: Chicken eggs were obtained from Henry Stewart & Co Ltd, Norfolk UK. All work with chicken embryos obeyed UK Home Office regulations and followed guidelines, standards and practices governed by the University of Aberdeen Ethics Committee (Scotland, UK). […] Embryos were incubated at 37° C. for the required time period to reach E2.5 and E4 (early and mid-developmental stages, respectively). Eggs were then opened and the embryonic membranes protecting the embryos were removed with forceps. Chicken embryos typically lie on one side, so the left side is directly against the yolk and the right side can be observed. Drug (TFBP) or Control (DMSO alone) solutions were applied in 100 μL aliquots over the middle of the embryo on its right side. Embryos were left at room temperature for 20 min before being replaced in a 37° C. incubator. Due to the limited diffusion of drugs when applied to the right side of an embryo, the right side is considered the ‘treatment’ side and the left (facing internally towards the yolk sack) is considered normal after treatment and can, thereby, act as an internal control.

[1] = Phase I metabolic stability in human liver microsomes (+/- NADPH, LC/MS); format: in vitro ADME
Protocol: The fluorinated compounds were evaluated under the more metabolically demanding conditions of a Phase-1-type microsomal analysis. […] For this initial comparison, the 7-fluoro-dithiopomaldiomide 30 was selected owing to its combination of favorable biological parameters and general ease of synthesis. The reactions on each sample were initiated by addition of human liver microsomes in the presence or absence of an NADPH regenerating system, and compound disappearance was monitored via LC/MS (FIG. 14, Table 10).

IL-6 = assay: LPS model of inflammation in rats: IL-6 in plasma, cortex, hippocampus; format: in vivo; conditions: 29.57 mg/kg i.p.; LPS rat model
Protocol: (§1) Four hours after LPS injection, animals were euthanized, and blood and brain tissue were collected and placed on wet ice. Plasma was quickly separated from blood by centrifuge at 10,000 g. 5 min, 4° C., and brain regions of cortex, hippocampus and the rest of brain were dissected into separate vials on wet ice, then stored at −80° C. Brain tissues were then sonicated in a TRIS based lysis buffer (Mesoscale Discovery) with 3× protease/phosphatase inhibitors (Halt™ Protease and Phosphatase Inhibitor Cocktail, Thermo Fisher Scientific), were then centrifuged at 10,000 g, 10 min, 4° C., and protein concentrations were measured by Bicinchoninic acid assay (BCA, Thermo Fisher Scientific). Rat plasma, cerebral cortical and hippocampal samples were then analyzed by multi-proinflammatory cytokines ELISA (V-PLEX Proinflammatory Panel 2 Rat Kit, Mesoscale Discovery), following the manufacturer's protocol. The processes and dosages of the experiment of drug treatment effects on LPS rat model was made on the basis of our previous studies.

KC/GRO (CXCL1) = assay: LPS model of inflammation in rats: KC/GRO (CXCL1); format: in vivo; conditions: 29.57 mg/kg i.p.; LPS rat model
Protocol: as §1

[2] = 3.5 μM, chicken embryos age E4, N = 7
[3] = 7.0 μM, chicken embryos age E2.5, N = 6
[4] = 7.0 μM, chicken embryos age E4, N = 7
[5] = 14.0 μM, chicken embryos age E2.5, N = 6

CC1(C)[C@@H]2CC[C@@]1(C)[C@@H](N1C(=O)c3c(F)c(F)c(F)c(F)c3C1=O)C2 [Compound 14, 4,5,6,7-Tetrafluoro-2-((1R,2S,4R)-1,7,7-trimethylbicyclo[2.2.1]heptan-2-yl) isoindoline-1,3-dione]
gait brake time (CCI-induced TBI mice): fully mitigates this rise
Abnormal embryos (chicken embryos; [2]): 0
Dead embryos (chicken embryos; [2]): 0
Normal embryos (chicken embryos; [2]): 7
Abnormal embryos (chicken embryos; [3]): 0
Dead embryos (chicken embryos; [3]): 2
Normal embryos (chicken embryos; [3]): 4
Abnormal embryos (chicken embryos; [4]): 0
Dead embryos (chicken embryos; [4]): 3
Normal embryos (chicken embryos; [4]): 4
Dead embryos (chicken embryos; [5]): 3
Normal embryos (chicken embryos; [5]): 2
developmental anomaly in chicken embryos (chicken embryos; 14.0 μM, a single embryo, eye on control side): micro-opthalmia of the eye
deaths of chicken embryos (chicken embryos; 14.0 μM, around 48-72 h after application): three deaths
effects on embryo development (chicken embryos; 3.5 and 7.0 μM): No effects on embryo development
tolerability in chicken embryos (chicken embryos; lower dose 3.5 μM, E2.5 and E4): well tolerated
death rate in chicken embryos (chicken embryos; two higher doses 7.0 and 14.0 μM): increasing death rate

Nc1ccc(F)c2c1C(=S)N(C1CCC(=S)NC1=O)C2=O (stereo not shown) [Compound 30, 4-amino-7-fluoro-2-(2-oxo-6-thioxopiperidin-3-yl)-3-thioxoisoindolin-1-one]
more material remaining compared to non-fluorinated partner ([1]; vs 4′, human liver microsomes): roughly 16%
more stability in the absolute sense ([1]; vs non-fluorinated 4′, human liver microsomes): 7%
stability in human liver microsomes (in words) ([1]; with and without NADPH): heightened resistance; also recorded: enhanced metabolic fortitude
IL-6 in plasma, cortex, and hippocampus (IL-6): significantly reduce
KC/GRO in brain (KC/GRO (CXCL1)): significantly reduce
